# Literature values as cited in patent US20260206743A1, “PROPINEB NANOSUSPENSION” (priority 2022, published 2026).
# Read-outs that look alike come from different tables or passages of the source.
substance,measurement,setting,value
"poly [1,2-propylene bis(dithiocarbamate)] zinc [Propineb]",Solubility in water,20° C.,< 10 µg/mL
same,Solubility in organic solvent,DMF+DMSO mixture,exceed 200 g/L
same,Solubility in organic solvent,dichloromethane,< 100 µg/mL
same,Solubility in organic solvent,hexane,< 100 µg/mL
same,Solubility in organic solvent,toluene,< 100 µg/mL
